Several values for one entry are separate records, joined by “and”; a condition that tells them apart may be missing. Identical values can stand only once. Inconclusive results and toxic doses are left out.
System: B6C3F1 mice, intracerebral ependymoblastoma, median survival T/C
Test: NCI In Vivo Anticancer Drug Screen. Data for tumor model Ependymoblastoma (intracerebral) in B6C3F1 mice
Conditions: endpoint: median survival time, higher = longer survival
Description: The antitumor activity of compounds was measured in mice bearing transplantable tumors. Survival or tumor size were measured and the results are expressed as the measurement made in the treated group (T) divided by the measurement made in the vehicle treated control group (C). The tumor model used in this assay is Ependymoblastoma (intracerebral) in B6C3F1 mice

[1] = dose: 25.0 mg/kg/injection, schedule: Q01DX005 (ip), vehicle: saline with Tween-80
[2] = dose: 50.0 mg/kg/injection, schedule: Q01DX005 (ip), vehicle: saline with Tween-80
[3] = dose: 3.12 mg/kg/injection, schedule: Q01DX005 (ip), vehicle: Klucel (hydroxypropylcellulose) (HPC)
[4] = dose: 6.25 mg/kg/injection, schedule: Q01DX005 (ip), vehicle: Klucel (hydroxypropylcellulose) (HPC)
[5] = dose: 0.25 mg/kg/injection, schedule: Q01DX005 (ip), vehicle: saline
[6] = dose: 1.0 mg/kg/injection, schedule: Q01DX005 (ip), vehicle: saline
[7] = dose: 10.0 mg/kg/injection, schedule: Q01DX005 (ip), vehicle: saline
[8] = dose: 128.0 mg/kg/injection, schedule: Q01DX001 (ip), vehicle: Klucel (hydroxypropylcellulose) (HPC)

Compound: NC(=S)Nc1cccc2ccccc12
- T/C (dose: 1.56 mg/kg/injection, schedule: Q01DX005 (ip), vehicle: saline with Tween-80): 92 % of control
- T/C (dose: 3.12 mg/kg/injection, schedule: Q01DX005 (ip), vehicle: saline with Tween-80): 100 % of control and 88 % of control
- T/C (dose: 6.25 mg/kg/injection, schedule: Q01DX005 (ip), vehicle: saline with Tween-80): 92 % of control and 93 % of control
- T/C (dose: 12.5 mg/kg/injection, schedule: Q01DX005 (ip), vehicle: saline with Tween-80): 91 % of control
- T/C [1]: 88 % of control and 89 % of control
- T/C [2]: 91 % of control

Compound: CCC(=O)OCC1OC(n2cnc3c(=S)nc(N)[nH]c32)C(OC(=O)CC)C1OC(=O)CC (stereo not given)
- T/C [3]: 104 % of control
- T/C [4]: 110 % of control
- T/C (dose: 12.5 mg/kg/injection, schedule: Q01DX005 (ip), vehicle: Klucel (hydroxypropylcellulose) (HPC)): 121 % of control
- T/C (dose: 25.0 mg/kg/injection, schedule: Q01DX005 (ip), vehicle: Klucel (hydroxypropylcellulose) (HPC)): 120 % of control

Compound: O=C1c2c(O)ccc(O)c2C(=O)c2c(NCCNCCO)ccc(NCCNCCO)c21
- T/C (dose: 0.25 mg/kg/injection, schedule: Q01DX005 (ip), vehicle: saline with Tween-80): 103 % of control
- T/C (dose: 0.5 mg/kg/injection, schedule: Q01DX005 (ip), vehicle: saline with Tween-80): 92 % of control and 98 % of control
- T/C (dose: 1.0 mg/kg/injection, schedule: Q01DX005 (ip), vehicle: saline with Tween-80): 103 % of control and 104 % of control
- T/C (dose: 2.0 mg/kg/injection, schedule: Q01DX005 (ip), vehicle: saline with Tween-80): 91 % of control and 103 % of control

Compound: CN(C)CC(=O)c1ccc(O)c(O)c1
- T/C (dose: 100.0 mg/kg/injection, schedule: Q01DX005 (ip), vehicle: saline): 100 % of control
- T/C (dose: 200.0 mg/kg/injection, schedule: Q01DX005 (ip), vehicle: saline): 94 % of control
- T/C (dose: 400.0 mg/kg/injection, schedule: Q01DX005 (ip), vehicle: saline): 106 % of control
- T/C (dose: 800.0 mg/kg/injection, schedule: Q01DX005 (ip), vehicle: saline): 108 % of control

Compound: COc1cccc2c1C(=O)c1c(O)c3c(c(O)c1C2=O)C[C@@](O)(C(=O)CO)C[C@@H]3OC1CC(N)C(O)C(C)O1 (stereo not given in full)
- T/C (dose: 0.06 mg/kg/injection, schedule: Q03HX008 (ip), vehicle: saline): 104 % of control
- T/C (dose: 0.12 mg/kg/injection, schedule: Q01DX005 (ip), vehicle: water): 96 % of control
- T/C (dose: 0.12 mg/kg/injection, schedule: Q03HX008 (ip), vehicle: saline): 100 % of control and 113 % of control
- T/C [5]: 94 % of control and 113 % of control and 114 % of control
- T/C (dose: 0.25 mg/kg/injection, schedule: Q01DX005 (ip), vehicle: water): 102 % of control
- T/C (dose: 0.25 mg/kg/injection, schedule: Q03HX008 (ip), vehicle: saline): 106 % of control and 120 % of control
- T/C (dose: 0.5 mg/kg/injection, schedule: Q01DX005 (ip), vehicle: saline): 103 % of control and 105 % of control and 114 % of control
- T/C (dose: 0.5 mg/kg/injection, schedule: Q01DX005 (ip), vehicle: suspension in saline): 103 % of control
- T/C (dose: 0.5 mg/kg/injection, schedule: Q01DX005 (ip), vehicle: water): 92 % of control and 113 % of control
- T/C (dose: 0.5 mg/kg/injection, schedule: Q03HX008 (ip), vehicle: saline): 114 % of control
- T/C [6]: 109 % of control and 110 % of control and 116 % of control
- T/C (dose: 1.0 mg/kg/injection, schedule: Q01DX005 (ip), vehicle: suspension in saline): 108 % of control
- T/C (dose: 1.0 mg/kg/injection, schedule: Q01DX005 (ip), vehicle: water): 102 % of control and 116 % of control
- T/C (dose: 2.0 mg/kg/injection, schedule: Q01DX005 (ip), vehicle: saline): 116 % of control and 118 % of control
- T/C (dose: 2.0 mg/kg/injection, schedule: Q01DX005 (ip), vehicle: suspension in saline): 121 % of control
- T/C (dose: 2.0 mg/kg/injection, schedule: Q01DX005 (ip), vehicle: water): 107 % of control and 113 % of control
- T/C (dose: 4.0 mg/kg/injection, schedule: Q01DX001 (oral), vehicle: saline): 100 % of control
- T/C (dose: 4.0 mg/kg/injection, schedule: Q01DX005 (ip), vehicle: saline): 100 % of control and 118 % of control and 86 % of control
- T/C (dose: 8.0 mg/kg/injection, schedule: Q01DX001 (oral), vehicle: saline): 96 % of control
- T/C (dose: 16.0 mg/kg/injection, schedule: Q01DX001 (oral), vehicle: saline): 103 % of control
- T/C (dose: 32.0 mg/kg/injection, schedule: Q01DX001 (oral), vehicle: saline): 89 % of control

Compound: O=C1NC2(CCCCC2)C(=O)N1CCN(CCCl)CCCl
- T/C (dose: 1.0 mg/kg/injection, schedule: Q01DX005 (ip), vehicle: Klucel (hydroxypropylcellulose) (HPC)): 116 % of control
- T/C [6]: 99 % of control and 103 % of control and 107 % of control
- T/C (dose: 1.5 mg/kg/injection, schedule: Q01DX005 (ip), vehicle: Klucel (hydroxypropylcellulose) (HPC)): 101 % of control
- T/C (dose: 1.56 mg/kg/injection, schedule: Q01DX005 (ip), vehicle: Klucel (hydroxypropylcellulose) (HPC)): 100 % of control
- T/C (dose: 2.0 mg/kg/injection, schedule: Q01DX005 (ip), vehicle: Klucel (hydroxypropylcellulose) (HPC)): 99 % of control
- T/C (dose: 2.5 mg/kg/injection, schedule: Q01DX005 (ip), vehicle: other): 97 % of control
- T/C (dose: 2.5 mg/kg/injection, schedule: Q01DX005 (ip), vehicle: saline): 100 % of control
- T/C (dose: 3.0 mg/kg/injection, schedule: Q01DX005 (ip), vehicle: Klucel (hydroxypropylcellulose) (HPC)): 110 % of control
- T/C [3]: 101 % of control
- T/C (dose: 4.0 mg/kg/injection, schedule: Q01DX005 (ip), vehicle: Klucel (hydroxypropylcellulose) (HPC)): 117 % of control
- T/C (dose: 5.0 mg/kg/injection, schedule: Q01DX005 (ip), vehicle: other): 112 % of control
- T/C (dose: 5.0 mg/kg/injection, schedule: Q01DX005 (ip), vehicle: saline): 98 % of control
- T/C (dose: 6.0 mg/kg/injection, schedule: Q01DX005 (ip), vehicle: Klucel (hydroxypropylcellulose) (HPC)): 111 % of control
- T/C (dose: 6.0 mg/kg/injection, schedule: Q01DX005 (oral), vehicle: Klucel (hydroxypropylcellulose) (HPC)): 105 % of control and 88 % of control
- T/C [4]: 105 % of control
- T/C (dose: 8.0 mg/kg/injection, schedule: Q01DX005 (ip), vehicle: Klucel (hydroxypropylcellulose) (HPC)): 112 % of control
- T/C [7]: 98 % of control
- T/C (dose: 12.0 mg/kg/injection, schedule: Q01DX005 (oral), vehicle: Klucel (hydroxypropylcellulose) (HPC)): 87 % of control
- T/C (dose: 24.0 mg/kg/injection, schedule: Q01DX005 (oral), vehicle: Klucel (hydroxypropylcellulose) (HPC)): 92 % of control and 100 % of control
- T/C (dose: 48.0 mg/kg/injection, schedule: Q01DX005 (oral), vehicle: Klucel (hydroxypropylcellulose) (HPC)): 101 % of control
- T/C (dose: 96.0 mg/kg/injection, schedule: Q01DX005 (oral), vehicle: Klucel (hydroxypropylcellulose) (HPC)): 97 % of control

Compound: Cc1c2ccncc2c(C)c2c1[nH]c1ccccc12
- T/C [8]: 112 % of control

Compound: Nc1ccc(S(=O)(=O)c2ccc(N)cc2)cc1
- T/C [1]: 122 % of control
- T/C [2]: 100 % of control
- T/C (dose: 100.0 mg/kg/injection, schedule: Q01DX005 (ip), vehicle: saline with Tween-80): 108 % of control

Compound: CN(C)N=Nc1ccc(C(=O)O)cc1
- T/C (dose: 32.0 mg/kg/injection, schedule: Q01DX005 (ip), vehicle: saline with Tween-80): 122 % of control

Compound: COc1ccc(C(=O)/C(Br)=C/C(=O)O)cc1
- T/C [7]: 92 % of control and 104 % of control
- T/C (dose: 20.0 mg/kg/injection, schedule: Q01DX005 (ip), vehicle: saline): 96 % of control and 103 % of control
- T/C (dose: 40.0 mg/kg/injection, schedule: Q01DX005 (ip), vehicle: saline): 94 % of control and 104 % of control

Compound: C1CN1c1nc(N2CC2)nc(N2CC2)n1
- T/C (dose: 0.06 mg/kg/injection, schedule: Q01DX005 (ip), vehicle: saline): 110 % of control
- T/C (dose: 0.13 mg/kg/injection, schedule: Q01DX005 (ip), vehicle: saline): 106 % of control and 119 % of control
- T/C [5]: 115 % of control and 124 % of control
- T/C [6]: 189 % of control and 238 % of control

Compound: O=P1(N(CCCl)CCCl)NC(OO)CCO1 (stereo not given)
- T/C (dose: 40.0 mg/kg/injection, schedule: Q01DX001 (ip), vehicle: saline): 102 % of control
- T/C (dose: 80.0 mg/kg/injection, schedule: Q01DX001 (ip), vehicle: saline): 108 % of control
- T/C (dose: 160.0 mg/kg/injection, schedule: Q01DX001 (ip), vehicle: saline): 113 % of control

Compound: CC(CN1CC(=O)NC(=O)C1)N1CC(=O)NC(=O)C1 (stereo not given)
- T/C (dose: 8.0 mg/kg/injection, schedule: Q01DX001 (ip), vehicle: Klucel (hydroxypropylcellulose) (HPC)): 101 % of control and 102 % of control
- T/C (dose: 16.0 mg/kg/injection, schedule: Q01DX001 (ip), vehicle: Klucel (hydroxypropylcellulose) (HPC)): 104 % of control and 86 % of control
- T/C (dose: 32.0 mg/kg/injection, schedule: Q01DX001 (ip), vehicle: Klucel (hydroxypropylcellulose) (HPC)): 101 % of control and 102 % of control
- T/C (dose: 64.0 mg/kg/injection, schedule: Q01DX001 (ip), vehicle: Klucel (hydroxypropylcellulose) (HPC)): 103 % of control and 109 % of control
- T/C [8]: 99 % of control and 103 % of control
